Reference: patent publication US8110596B2, “Triprenyl phenol compound, process for production of triprenyl phenol compound, and thrombolysis enhancer” (Tokyo University of Agriculture and Technology TLO Co., Ltd., priority 2006, dated 2012)

Molecular target: T1, Glu-plg (Homo sapiens, UniProt P00747)
T1 construct: 0.1 mM VLK-pNA, 50 nM Glu-plg and 50 U/ml u-PA
Test: Plasminogen (plg) activation enhancing activity by urokinase catalysis, VLK-pNA chromogenic assay (Example 30, Table 24)
Format: biochemical
Settings: for Maximum enhancing activity: Concentration by mole / Maximum enhancing activity: Concentration by weight: concentration at which enhancement of plasminogen activation reaches the maximum; for 10-Fold enhancing activity: Concentration by mole / 10-Fold enhancing activity: Concentration by weight: concentration giving 10-fold enhancement of plasminogen activation vs control without SMTP compound (=1); for 10-Fold enhancing activity: Concentration by mole / 10-Fold enhancing activity: Concentration by weight / plasminogen activation enhancing activity compared to orniplabin: 0.1 mM VLK-pNA, 50 nM Glu-plg, 50 U/ml u-PA, 37° C.; for Maximum enhancing activity: Multiplication factor: fold enhancement of plasminogen activation at maximum, control without SMTP compound = 1
Procedure: For the various triprenyl phenol compounds obtained as described above, the performance was evaluated with regard to the thrombolytic activity as the activity of promoting the plasminogen (plg) activation by urokinase catalysis.
The property of plasmin of cutting the peptide bond of a synthetic chromogenic substrate VLK-pNA (Val-Leu-Lys-p-nitroanilide) to generate p-nitroaniline (pNA), was used to measure the yellow coloration of pNA which is absorbed at 405 nm, and thereby the plasminogen activation enhancing activity of a sample is measured. An MTP-500 type microplate reader (Corona Electric Co., Ltd.) was employed as the measuring device, and measurement was performed with a 96-well round bottom microplate.
The measurement was performed under the conditions of kinetic measurement at 37° C. with dual wavelength of 405 nm (activity) to 595 nm (background), for 60 times in every minute.
The purified samples were each made into a DMSO solution or an aqueous solution of sodium salt. This solution was diluted with TBS/T (50 mM Tris-HCl, 100 mM NaCl and 0.01% Tween80, pH 7.4) to provide a sample for measurement.
Furthermore, as a blank, a reaction was performed using a reaction liquid not containing u-PA, and the value obtained therefrom was subtracted from the values obtained from the reactions described above. The absorbance was plotted against the square of time, and the slope was defined as the initial rate of reaction. A reaction solution not added with any triprenyl phenol compound was taken as the control and was compared with the samples, to determine the degree of activity of the respective compounds.
The term “concentration of 10-fold enhancing activity” indicates the concentration at which 10-fold enhancing activity is obtained in the case where the value obtained by using a reaction solution not containing any SMTP compound (control) is taken as 1. The term “maximum enhancing activity” indicates the concentration at which the enhancement of plasminogen activation by an SMTP compound reaches the maximum.

T1 sequence (P00747 20-810 limits assumed): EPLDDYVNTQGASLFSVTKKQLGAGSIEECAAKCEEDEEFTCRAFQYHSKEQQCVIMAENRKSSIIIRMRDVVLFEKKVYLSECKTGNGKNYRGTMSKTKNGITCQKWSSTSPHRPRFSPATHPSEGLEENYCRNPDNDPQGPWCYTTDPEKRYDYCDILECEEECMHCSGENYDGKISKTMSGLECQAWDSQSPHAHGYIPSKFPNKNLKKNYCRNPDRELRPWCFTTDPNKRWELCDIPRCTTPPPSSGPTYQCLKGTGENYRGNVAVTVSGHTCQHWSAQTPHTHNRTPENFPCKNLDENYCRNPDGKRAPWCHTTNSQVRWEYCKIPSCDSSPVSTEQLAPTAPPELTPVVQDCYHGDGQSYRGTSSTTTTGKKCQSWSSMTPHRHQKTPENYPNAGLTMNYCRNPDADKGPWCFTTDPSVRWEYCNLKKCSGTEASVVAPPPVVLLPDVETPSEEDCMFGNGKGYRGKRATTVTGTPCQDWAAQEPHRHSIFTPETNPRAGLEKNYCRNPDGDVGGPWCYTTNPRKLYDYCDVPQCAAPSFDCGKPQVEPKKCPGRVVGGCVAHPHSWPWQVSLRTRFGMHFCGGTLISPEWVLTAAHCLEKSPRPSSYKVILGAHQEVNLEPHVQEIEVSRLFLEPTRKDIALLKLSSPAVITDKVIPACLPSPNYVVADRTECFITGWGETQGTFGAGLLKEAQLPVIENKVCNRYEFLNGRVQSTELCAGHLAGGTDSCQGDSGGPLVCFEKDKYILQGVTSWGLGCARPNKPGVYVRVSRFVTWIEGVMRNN

| Compound | Maximum enhancing activity: Concentration by mole [µM] | Maximum enhancing activity: Concentration by weight [µg/mL] | 10-Fold enhancing activity: Concentration by mole [μM] | 10-Fold enhancing activity: Concentration by weight [μg/ml] | Maximum enhancing activity: Multiplication factor | plasminogen activation enhancing activity compared to orniplabin |
| --- | --- | --- | --- | --- | --- | --- |
| CC(C)=CCC/C(C)=C/CC[C@]1(C)Oc2c(c(O)cc3c2CN([C@H](C(=O)O)c2cccc(O)c2)C3=O)C[C@@H]1O (racemic) [Compound I-25] | 402 | 215 | 230 | 123 | 29 | – |
| CC(C)=CCC/C(C)=C/CC[C@]1(C)Oc2c(c(O)cc3c2CN(c2ccc(C(=O)O)cc2)C3=O)C[C@@H]1O [Compound I-2] | 160 | 81 | 83 | 42 | 126 | equivalent or higher |
| CC(C)=CCC/C(C)=C/CC[C@]1(C)Oc2c(c(O)cc3c2CN(c2cccc(C(=O)O)c2)C3=O)C[C@@H]1O [Compound I-3] | 300 | 151 | 202 | 102 | 52 | – |
| CC(C)=CCC/C(C)=C/CC[C@]1(C)Oc2c(c(O)cc3c2CN(c2ccccc2C(=O)O)C3=O)C[C@@H]1O [Compound I-4] | 200 | 101 | 133 | 67 | 51 | – |
| CC(C)=CCC/C(C)=C/CC[C@]1(C)Oc2c(c(O)cc3c2CN(c2ccc(C(=O)O)c(O)c2)C3=O)C[C@@H]1O [Compound I-5] | 200 | 101 | 100 | 52 | 158 | equivalent or higher |
| CC(C)=CCC/C(C)=C/CC[C@]1(C)Oc2c(c(O)cc3c2CN(c2ccc(C(=O)O)cc2O)C3=O)C[C@@H]1O [Compound I-6] | 290 | 151 | 131 | 68 | 65 | – |
| CC(C)=CCC/C(C)=C/CC[C@]1(C)Oc2c(c(O)cc3c2CN(c2c(O)cccc2C(=O)O)C3=O)C[C@@H]1O [Compound I-7] | 290 | 151 | 173 | 90 | 37 | – |
| CC(C)=CCC/C(C)=C/CC[C@]1(C)Oc2c(c(O)cc3c2CN(c2cccc(C(=O)O)c2O)C3=O)C[C@@H]1O [Compound I-8] | 100 | 52 | 71 | 37 | 91 | equivalent or higher |
| CC(C)=CCC/C(C)=C/CC[C@]1(C)Oc2c(c(O)cc3c2CN(c2ccc(O)c(C(=O)O)c2)C3=O)C[C@@H]1O [Compound I-9] | 120 | 63 | – | – | 8 | – |
| CC(C)=CCC/C(C)=C/CC[C@]1(C)Oc2c(c(O)cc3c2CN(c2cc(C(=O)O)ccc2O)C3=O)C[C@@H]1O [Compound I-10] | 290 | 151 | 188 | 98 | 43 | – |
| CC(C)=CCC/C(C)=C/CC[C@]1(C)Oc2c(c(O)cc3c2CN(c2ccc(O)cc2C(=O)O)C3=O)C[C@@H]1O [Compound I-11] | 200 | 101 | 127 | 66 | 65 | – |
| CC(C)=CCC/C(C)=C/CC[C@]1(C)Oc2c(c(O)cc3c2CN(c2ccc(S(=O)(=O)O)cc2)C3=O)C[C@@H]1O [Compound I-19] | 300 | 163 | 137 | 74 | 60 | – |
| CC(C)=CCC/C(C)=C/CC[C@]1(C)Oc2c(c(O)cc3c2CN([C@H](C(=O)O)c2ccccc2)C3=O)C[C@@H]1O [Compound I-20] | 289 | 150 | 89 | 46 | 402 | equivalent or higher |
| CC(C)=CCC/C(C)=C/CC[C@]1(C)Oc2c(c(O)cc3c2CN([C@@H](C(=O)O)c2ccccc2)C3=O)C[C@@H]1O [Compound I-21] | 289 | 150 | 104 | 54 | 44 | – |
| CC(C)=CCC/C(C)=C/CC[C@]1(C)Oc2c(c(O)cc3c2CN([C@H](C(=O)O)c2ccc(O)cc2)C3=O)C[C@@H]1O [Compound I-22] | 299 | 160 | 211 | 113 | 18 | – |
| CC(C)=CCC/C(C)=C/CC[C@]1(C)Oc2c(c(O)cc3c2CN([C@@H](C(=O)O)c2ccc(O)cc2)C3=O)C[C@@H]1O [Compound I-23] | 402 | 215 | 331 | 177 | 22 | – |
| CC(C)=CCC/C(C)=C/CC[C@]1(C)Oc2c(c(O)cc3c2CN([C@@H](Cc2ccc(O)cc2)C(=O)O)C3=O)C[C@H]1O [Compound I-26] | 200 | 110 | 77 | 42 | 76 | equivalent or higher |
| CC(C)=CCC/C(C)=C/CC[C@]1(C)Oc2c(c(O)cc3c2CN(CCC[C@@H](C(=O)O)N2Cc4c(cc(O)c5c4O[C@@](C)(CC/C=C(\C)CCC=C(C)C)[C@@H](O)C5)C2=O)C3=O)C[C@@H]1O [Orniplabin, reference compound] | 90 | 78 | 65 | 56 | 100 | – |
